Test results reported in publication PMC12246139 (Scientific Reports, 2025).
Several values for one entry are separate records, joined by “and”; a condition that tells them apart may be missing. Identical values can stand only once. Like-named read-outs stand apart in the source and are kept apart here.

Tests used:
KRAS(G12C/H95L) [1] = target: T1, KRAS(G12C/H95L) (Homo sapiens, UniProt P01116, G12C/H95L); experiment: biochemical; details: 10 nM KRAS(G12C/H95L), 5 nM SOScat, 15 min preincubation; read-out: Nucleotide exchange IC50
Text: (§1) First, we performed a traditional nucleotide exchange assay using a single-label quenching resonance energy transfer (QRET) principle[63]–[65] and non-labeled full-length KRAS(G12C), (G12C/H95L), and (G12C/Y96D). The selection of the two double mutants was based on the observed interactions in the MD simulations (Figs. 2, 3), and the fact that acquired resistance with SII-P inhibitors is associated with these mutations, as clinically observed for sotorasib and adagrasib[66]–[68].
(§2) Nucleotide exchange inhibition was monitored in an assay with 10 nM KRAS and 5 nM SOS^cat, utilizing Eu^3+-GTP TRL-signal protection upon KRAS binding according to QRET principle. […] (d) Overview of the assay results presented in (a–c) and Figs. S17, S19–S20.
(§3) Nucleotide exchange assays using the QRET principle[63]–[65],[68] were performed in assay buffer containing 20 mM HEPES (pH 7.5) 1 mM MgCl2, 10 mM NaCl, 0.01% (v/v) Triton X-100. […] Thereafter, 6 μL of detection solution (3.5 μM MT2 and 10 nM Eu^3+-GTP) was added and reaction was initiated with 5 nM SOS^cat added in 3 μL volume. TRL-signals were monitored using Tecan Spark 20 M from Tecan Life Sciences (Männedorf, Switzerland) by using 340 and 620 nm excitation and emission wavelengths and 800 and 400 μs delay and decay time, respectively. All concentrations are informed in a final 15 μL reaction volume in white 384-well low volume plates (Corning, USA). IC50 values were obtained using standard sigmoidal fitting functions from Origin 2016 software (Origin Lab, Northampton, MA).

KRAS(G12C/Y96D) [2] = target: T2, KRAS(G12C/Y96D) (Homo sapiens, UniProt P01116, G12C/Y96D); experiment: biochemical; details: 10 nM KRAS(G12C/Y96D), 5 nM SOScat, 15 min preincubation; read-out: Nucleotide exchange IC50
Text: as §1, §2, §3

HRAS(G12C) = HRAS(G12C) (Homo sapiens, UniProt P01112, G12C); experiment: biochemical; details: 10 nM HRAS(G12C), 5 nM SOScat, 15 min preincubation; read-out: Nucleotide exchange IC50
HRAS(G12C), sequence (P01112 1-169 G12C): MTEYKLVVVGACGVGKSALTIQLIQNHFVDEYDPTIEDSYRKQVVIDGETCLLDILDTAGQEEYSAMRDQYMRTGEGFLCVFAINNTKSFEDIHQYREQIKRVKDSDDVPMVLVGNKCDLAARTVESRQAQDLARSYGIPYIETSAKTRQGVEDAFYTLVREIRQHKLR
Procedure: as §2
(§4) SII-P inhibitor activities can differ among RAS isoforms (KRAS/HRAS/NRAS). These isoforms differ only in position 95 in the SII-P (Fig. S18).
as §3

NRAS(G12C) = NRAS(G12C) (Homo sapiens, UniProt P01111, G12C); experiment: biochemical; details: 10 nM NRAS(G12C), 5 nM SOScat, 15 min preincubation; read-out: Nucleotide exchange IC50
NRAS(G12C), sequence (P01111 1-169 G12C): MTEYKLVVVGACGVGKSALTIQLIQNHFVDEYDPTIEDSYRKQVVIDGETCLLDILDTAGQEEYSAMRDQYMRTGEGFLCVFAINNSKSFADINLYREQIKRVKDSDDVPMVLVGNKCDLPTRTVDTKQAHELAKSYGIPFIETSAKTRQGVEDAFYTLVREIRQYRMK
Procedure: as §2, §4, §3

KRAS(WT) [3] = target: T3, KRAS(WT) (Homo sapiens, UniProt P01116); experiment: biochemical; details: 10 nM KRAS(WT), 5 nM SOScat, 15 min preincubation; read-out: Nucleotide exchange IC50
Procedure: Our results imply that both inhibitors are highly dependent on their covalent interaction to G12C for efficient and potent RAS inhibition.
as §3
with 10 nM KRAS(WT) and 5 nM SOScat, utilizing Eu3+-GTP (10 nM) TRL-signal protection upon
KRAS binding according to QRET principle.
(§5) (1 picture or pasted object on this page, not shown here)

KRAS(G12C) [4] = target: T4, KRAS(G12C) (Homo sapiens, UniProt P01116, G12C); experiment: biochemical; format: binding; details: 20 nM KRAS(G12C), 1 M urea, 120 min at room temperature; read-out: Chemical stability IC50
Procedure: as §2
(§6) In these assays, no external protein (SOS^cat) is used and only KRAS and inhibitors are present. First, we conducted a chemical stability assay by utilizing the FRET-Probe technique. In this system, time dependent KRAS (20 nM) denaturation is monitored in 1 M urea solution after KRAS preincubation with varying inhibitor concentration. […] In this assay, we observed an exceptionally high stability increase with both inhibitors (Fig. 5d; Fig. S17).
(§7) FRET-Probe chemical stability assays[69] were performed in triplicates in an assay buffer containing 10 mM HEPES (pH 7.5), 10 mM NaCl, and 0.01% (v/v) Brij-30 (with or without 0.2 mM MgCl2) and destabilizing detection buffer with 10 mM HEPES (pH 7.5), 1 M urea, and 0.01% (v/v) Brij-30. […] Thereafter, 16 μL of the 1 × FRET-Probe was added in destabilizing detection buffer and TR-FRET signal was monitored multiple times during 120 min incubation (parameters as in thermal stability assay). All concentrations are informed in a final 20 μL reaction volume in white 384-well low volume plates (Corning, USA). IC50 values were obtained by blotting the signals obtained with different inhibitor concentrations at the selected time point against the inhibitor concentration and using standard sigmoidal fitting functions from Origin 2016 software.

KRAS(G12C/H95L) [5] = target: T1, KRAS(G12C/H95L); experiment: biochemical; format: binding; details: 20 nM KRAS(G12C/H95L), 1 M urea, 120 min at room temperature; read-out: Chemical stability IC50
Procedure: as §2, §6, §7

KRAS(G12C/Y96D) [6] = target: T2, KRAS(G12C/Y96D); experiment: biochemical; format: binding; details: 20 nM KRAS(G12C/Y96D), 1 M urea, 120 min at room temperature; read-out: Chemical stability IC50
Procedure: as §2, §6, §7

KRAS(G12C) [7] = target: T4, KRAS(G12C); experiment: FRET-Probe thermal stability assay; format: binding
Procedure: as §6
(§8) FRET-Probe thermal stability assays[69] were conducted in triplicates in an assay buffer containing 10 mM HEPES (pH 7.5), 10 mM NaCl, 0.5 mM MgCl2, and 0.01% (v/v) Brij-30. Assay was also performed in an assay buffer without MgCl2. […] Thereafter, 8 μL of the 1 × FRET-Probe was added, and signals were monitored using step-by-step protocol by heating from 34–96 °C using 2 °C steps and heating the sample 1.5 min at each step prior measurement using 340 and 665 nm excitation and emission wavelengths and 50 and 200 μs delay and decay time, respectively. Thermal heating was performed with a PTC-100 Programmable Thermal Controller (MJ Research, Inc., Watertown, MA). All concentrations are informed in a final 20 μL reaction volume in white 96-well PCR-plate (BioRad, USA). Tm values were obtained using standard sigmoidal fitting functions from Origin 2016 software. […]
heating with the FRET-Probe. KRAS(G12C) was preincubated 15 min prior the thermal ramping, in […]
which the TR-FRET signals from the triplicate reactions were monitored for every 2 °C, up to 96 °C.
Normalized thermal curves with or without MgCl2 (0.2 mM) are shown in A and C, and the same data […]
is presented as TR-FRET signals in B and D, respectively.
as §5

KRAS(WT) [8] = target: T3, KRAS(WT); experiment: FRET-Probe thermal stability assay; format: binding; design: full-length KRAS(G12C), KRAS(G12C/H95L), KRAS(G12C/Y96D) and KRAS(WT); host or cells: E. coli
Procedure: as §8
TR-FRET signals from the triplicate reactions were monitored for every 2 °C, up to 96 °C. Normalized thermal curves with or without MgCl2 (0.2 mM) are shown in A and C, and the same data is presented as TR-FRET signals in B and D, respectively.
as §5

KRAS(G12C) [9] = target: T4, KRAS(G12C); experiment: biochemical; details: 10 nM KRAS(G12C), 5 nM SOScat, 15 min preincubation; read-out: Nucleotide exchange IC50

SMILES	IC50 (KRAS(G12C/H95L) [1])	IC50 (KRAS(G12C/Y96D) [2])	IC50 (HRAS(G12C))	IC50 (NRAS(G12C))	IC50 (KRAS(WT) [3])	IC50 (KRAS(G12C) [4])	IC50 (KRAS(G12C/H95L) [5])	IC50 (KRAS(G12C/Y96D) [6])	ΔTm at 0.05 µM (KRAS(G12C) [7]; 20 nM KRAS(G12C), 50 nM inhibitor, first value (footnote c), one of the with / without Mg2+ conditions, read-out: Thermal stability ΔTm)	ΔTm at 0.05 µM (KRAS(G12C) [7]; 20 nM KRAS(G12C), 50 nM inhibitor, second value (footnote d), the other of the with / without Mg2+ conditions, read-out: Thermal stability ΔTm)	ΔTm at 10 µM (KRAS(WT) [8]; 20 nM KRAS(WT), 10,000 nM inhibitor, first value (footnote f), one of the with / without Mg2+ conditions, read-out: Thermal stability ΔTm)	ΔTm at 10 µM (KRAS(WT) [8]; 20 nM KRAS(WT), 10,000 nM inhibitor, second value (footnote g), the other of the with / without Mg2+ conditions, read-out: Thermal stability ΔTm)	IC50 (KRAS(G12C) [9])	ΔTm at 0.05 µM (KRAS(G12C) [7]; read-out: Thermal stability ΔTm, 20 nM KRAS(G12C), 50 nM inhibitor, first value (footnote c), one of the with / without Mg2+ conditions)	ΔTm at 0.05 µM (KRAS(G12C) [7]; read-out: Thermal stability ΔTm, 20 nM KRAS(G12C), 50 nM inhibitor, second value (footnote d), the other of the with / without Mg2+ conditions)	ΔTm at 10 µM (KRAS(WT) [8]; read-out: Thermal stability ΔTm, 20 nM KRAS(WT), 10,000 nM inhibitor, first value (footnote f), one of the with / without Mg2+ conditions)	ΔTm at 10 µM (KRAS(WT) [8]; read-out: Thermal stability ΔTm, 20 nM KRAS(WT), 10,000 nM inhibitor, second value (footnote g), the other of the with / without Mg2+ conditions)
C=CC(=O)N1CCN(c2nc(OC[C@@H]3CCCN3C)nc3c(F)c(-c4nc(N)cc(C)c4C(F)(F)F)c(Cl)cc23)[C@@H](C)C1 [GDC-6036, divarasib]	12 ± 3 nM	229 ± 59 nM	32.9 ± 2.2 nM	29.8 ± 2.35 nM	291 ± 23 nM	5.9 ± 0.9 nM	15 ± 3.4 nM	106 ± 6 nM	23.7 °C	32.5 °C	5.2 °C	5.5 °C	–	–	–	–	–
C=CC(=O)N1CCN2C(=O)c3cc(F)c(-c4ccc(F)c5sc(N)c(C#N)c45)c(Cl)c3OCC[C@H]2C1 [LY3537982, olomorasib]	0.121 nM and 0.12 nM	2.8 ± 0.8 nM	0.48 ± 0.042 nM	0.16 ± 0.013 nM	343 ± 23 nM	0.368 nM and 0.37 nM	0.345 nM and 0.35 nM	1.6 ± 0.1 nM	–	–	–	–	0.956 ± 0.3 nM	20.5 °C	30.4 °C	5.1 °C	4.9 °C
